According to patent US7041698B2, “Hepatitis C virus inhibitors” (Bristol-Myers Squibb Company, priority 2002, dated 2006):
Where two headings read alike, the source gives them in different places.

Legend:
[1] = biological target: T1, HCV NS3/4A protease complex (UniProt P27958, C1454S/C1711G, species not given); experiment: Recombinant HCV NS3/4A protease complex FRET peptide assay (strain not stated); format: biochemical
T1 construct: fused on or other part: Three-lysine solubilising tail at the C-terminus of NS4A
From the text: Recombinant HCV NS3/4A Protease Complex FRET Peptide Assay
The purpose of this in vitro assay was to measure the inhibition of HCV NS3 protease complexes, derived from the BMS, H77C or J416S strains, as described below, by compounds of the present invention. This assay provides an indication of how effective compounds of the present invention would be in inhibiting HCV proteolytic activity.
Serum from an HCV-infected patient was obtained from Dr. T. Wright, San Francisco Hospital. An engineered full-length cDNA (compliment deoxyribonucleic acid) template of the HCV genome (BMS strain) was constructed from DNA fragments obtained by reverse transcription-PCR (RT-PCR) of serum RNA (ribonucleic acid) and using primers selected on the basis of homology between other genotype 1a strains. From the determination of the entire genome sequence, a genotype 1a was assigned to the HCV isolate according to the classification of Simmonds et al. (See P Simmonds, K A Rose, S Graham, S W Chan, F McOmish, B C Dow, E A Follett, P L Yap and H Marsden, J. Clin. Microbiol., 31(6), 1493–1503 (1993)). […] The infectious clones, H77C (1a genotype) and J4L6S (1b genotype) were obtained from R. Purcell (NIH) and the sequences are published in Genbank (AAB67036, see Yanagi, M., Purcell, R. H., Emerson, S. U. and Bukh, J. Proc. Natl. Acad. Sci. U.S.A. 94(16),8738–8743 (1997); AF054247, see Yanagi, M., St Claire, M., Shapiro, M., Emerson, S. U., Purcell, R. H. and Bukh, J, Virology 244 (1), 161–172. (1998)).
The BMS, H77C and J4L6S strains were used for production of recombinant NS3/4A protease complexes. DNA encoding the recombinant HCV NS3/4A protease complex (amino acids 1027 to 1711) for these strains were manipulated as described by P. Gallinari et al. (see Gallinari P, Paolini C, Brennan D, Nardi C, Steinkuhler C, De Francesco R. Biochemistry. 38(17):5620–32, (1999)). Briefly, a three-lysine solubilizing tail was added at the 3′-end of the NS4A coding region. The cysteine in the P1 position of the NS4A-NS4B cleavage site (amino acid 1711) was changed to a glycine to avoid the proteolytic cleavage of the lysine tag. Furthermore, a cysteine to serine mutation was introduced by PCR at amino acid position 1454 to prevent the autolytic cleavage in the NS3 helicase domain. The variant DNA fragment was cloned in the pET21b bacterial expression vector (Novagen) and the NS3/4A complex was expressed in Escherichia. coli strain BL21 (DE3) (Invitrogen) following the protocol described by P. Gallinari et al. (see Gallinari P, Brennan D, Nardi C, Brunetti M, Tomei L, Steinkuhler C, De Francesco R., J. Virol. 72(8):6758–69 (1998)) with modifications. Briefly, NS3/4A expression was induced with 0.5 mM Isopropyl β-D-1-thiogalactopyranoside (IPTG) for 22 hr at 20° C. A typical fermentation (10L) yielded approximately 80 g of wet cell paste. The cells were resuspended in lysis buffer (10 mL/g) consisting of 25 mM N-(2-Hydroxyethyl)Piperazine-N′-(2-Ethane Sulfonic acid) (HEPES), pH7.5, 20% glycerol, 500 mM Sodium Chloride (NaCl), 0.5% Triton-X100, 1 ug/ml lysozyme, 5 mM Magnesium Chloride (MgCl2), lug/ml Dnasel, 5 mM β-Mercaptoethanol (βME), Protease inhibitor—Ethylenediamine Tetraacetic acid (EDTA) free (Roche), homogenized and incubated for 20 mins at 4° C. The homogenate was sonicated and clarified by ultra-centrifugation at 235000 g for 1 hr at 4° C. Imidazole was added to the supernatant to a final concentration of 15 mM and the pH adjusted to 8.0. The crude protein extract was loaded on a Nickel-Nitrilotriacetic acid (Ni-NTA) column pre-equilibrated with buffer B (25 mM HEPES, pH 8.0, 20% glycerol, 500 mM NaCl, 0.5% Triton-X100, 15 mM imidazole, 5 mM βME). The sample was loaded at a flow rate of 1 mL/min. The column was washed with 15 column volumes of buffer C (same as buffer B except with 0.2% Triton-X100). The protein was eluted with 5 column volumes of buffer D (same as buffer C except with 200 mM Imidazole). […]

[2] = tested on: HCV replicon in Huh7 cells; experiment: HCV replicon cell-based assay; design: species or system HCV strain 1B; conditions: Hepatitis C virus, Huh-7, 96 h, HCV replicon, 4 days, read-out: EC50 range
From the text: HCV Replicon Cell-based Assay
An HCV replicon whole cell system was established as described by Lohmann V, Komer F, Koch J, Herian U, Theilmann L, Bartenschlager R., Science 285(5424):110–3 (1999). This system enabled us to evaluate the effects of our HCV Protease compounds on HCV RNA replication. Briefly, using the HCV strain 1B sequence described in the Lohmann paper (Assession number:AJ238799), an HCV cDNA was generated encoding the 5′ internal ribosome entry site (IRES), the neomycin resistance gene, the EMCV (encephalomyocarditis viurs)-IRES and the HCV nonstructural proteins, NS3-NS5B, and 3′ non-translated region (NTR). In vitro transcripts of the cDNA were transfected into the human hepatoma cell line, Huh7. […] Resulting cell lines were characterized for positive and negative strand RNA production and protein production over time.
Huh7 cells, constitutively expressing the HCV replicon, were grown in Dulbecco's Modified Eagle Media (DMEM) containing 10% Fetal calf serum (FCS) and 1 mg/ml G418 (Gibco-BRL). Cells were seeded the night before (1.5×10^4 cells/well) in 96-well tissue-culture sterile plates. Compound and no compound controls were prepared in DMEM containing 4% FCS, 1:100 Penicillin/Streptomysin, 1:100 L-glutamine and 5% DMSO in the dilution plate (0.5% DMSO final concentration in the assay). Compound/DMSO mixes were added to the cells and incubated for 4 days at 37° C. After 4 days, plates were rinsed thoroughly with Phosphate-Buffered Saline (PBS) (3 times 150 μl). The cells were lysed with 25 μl of a lysis assay reagent containing the FRET peptide (RET S1, as described for the in vitro enzyme assay). The lysis assay reagent was made from 5× cell Luciferase cell culture lysis reagent (Promega #E153A) diluted to 1× with distilled water, NaCl added to 150 mM final, the FRET peptide diluted to 10 μM final from a 2 mM stock in 100% DMSO. The plate was then placed into the Cytofluor 4000 instrument which had been set to 340 nm excitation/490 emission, automatic mode for 21 cycles and the plate read in a kinetic mode. EC50 determinations were carried out as described for the IC50 determinations.
As a secondary assay, EC50 determinations from the replicon FRET assay were confirmed in a quantitative RNA assay. Cells were lyzed using the Rneasy kit (Qiagen). Purified total RNA was normalized using RiboGreen (Jones L J, Yue S T, Cheung C Y, Singer V L, Anal. Chem., 265(2):368–74 (1998)) and relative quantitation of HCV RNA expression assessed using the Taqman procedure (Kolykhalov A A, Mihalik K, Feinstone S M, Rice C M, Journal of Virology 74, 2046–2051 (2000)) and the Platinum Quantitative RT-PCR Thermoscript One-Step kit (Invitrogen cat # 11731-015). Briefly, RNA made to a volume of 5 μl (<1 ng) was added to a 20 μl Ready-Mix containing the following: 1.25× Thermoscript reaction mix (containing Magnesium Sulfate and 2-deoxynucleoside 5′-triphosphates (dNTPs)), 3 mM dNTPs, 200 nM forward primer (sequence: 5′-[…]-3′), 600 nM reverse primer (5′-[…]-3′), 100 nM probe (5′-6-FAM-[…]-BHQ-1-3′)(FAM: Fluorescein-aminohexyl amidite; BHQ: Black Hole Quencher), 1 μM Rbx reference dye (Invitrogen cat # 12223-012) and Thermoscript Plus Platinum Taq polymerase mixture. All primers were designed with ABI Prism 7700 software and obtained from Biosearch Technologies, Novato, Calif. Samples containing known concentrations of HCV RNA transcript were run as standards. Using the following cycling protocol (50° C., 30 min; 95° C., 5 min; 40 cycles of 95° C., 15 sec, 60° C., 1 min), HCV RNA expression was quantitated as described in the Perkin Elmer manual using the ABI Prism 7700 Sequence Detector.
The luciferase reporter assay was also used to confirm compound potency in the replicon. Utilization of a replicon luciferase reporter assay was first described by Krieger et al (Krieger N, Lohmann V, and Bartenschlager R, J. Virol. 75(10):4614–4624 (2001)). […]

[3] = HCV NS3/4A protease enzyme assay, read-out: IC50 range
[4] = read-out: IC50 range, HCV NS3/4A protease enzyme assay

Compound	IC50 [1, 3] [nM]	EC50 [2] [nM]	IC50 [1, 4] [nM]
C=CC1C[C@]1(NC(=O)[C@@H]1C[C@@H](OC(=O)Nc2cccc(CC)c2)CN1C(=O)[C@@H](NC(=O)OC(C)(C)C)C(C)(C)C)C(=O)NS(=O)(=O)C1CC1 (stereo partly drawn) [Compound 25, BocNH-P3(t-BuGly)-P2(Hyp(O—CO(NH—(3-ethyl-phenyl))))-P1(1R,2S VinylAcca)—CONHSO2Cyclopropane]	< 100	1000 to 10000	–
C=CC1C[C@]1(NC(=O)[C@@H]1C[C@@H](OC(=O)Nc2cc(C(F)(F)F)ccc2-n2cccc2)CN1C(=O)[C@@H](NC(=O)OC(C)(C)C)C(C)(C)C)C(=O)NS(=O)(=O)C1CC1 (stereo partly shown) [Compound 85]	< 100	100 to 1000	–
C=C[C@@H]1C[C@]1(NC(=O)[C@@H]1C[C@@H](OC(=O)N2CCc3ccccc3C2)CN1C(=O)[C@@H](NCC1CC1)C(C)(C)C)C(=O)NS(=O)(=O)C1CC1 [Compound 101]	< 100	1000 to 10000	–
C=CC1C[C@]1(NC(=O)[C@@H]1C[C@@H](OC(=O)Nc2cccc(C(=O)OCC)c2)CN1C(=O)[C@@H](NC(=O)OC(C)(C)C)C(C)(C)C)C(=O)NS(=O)(=O)C1CC1 (stereo partly drawn) [Compound 28, BocNH-P3(t-BuGly)-P2(Hyp(O—CO(NH—(3-benzoic acid ethyl ester))))-P1(1R,2S VinylAcca)—CONHSO2Cyclopropane]	100 to 1000	1000 to 10000	–
C=CC1C[C@]1(NC(=O)[C@@H]1C[C@@H](OC(=O)Nc2cc(C)ccc2F)CN1C(=O)[C@@H](NC(=O)OC(C)(C)C)C(C)(C)C)C(=O)NS(=O)(=O)C1CC1 (stereo partly drawn) [Compound 21, BocNH-P3(t-BuGly)-P2(Hyp(O—CO(NH—(2-fluoro-5-methyl-phenyl))))-P1(1R,2S VinylAcca)—CONHSO2Cyclopropane]	< 100	100 to 1000	–
C=CC1C[C@]1(NC(=O)[C@@H]1C[C@@H](OC(=O)NCCc2ccccc2)CN1C(=O)[C@@H](NC(=O)OC(C)(C)C)C(C)(C)C)C(=O)NS(=O)(=O)C1CC1 (stereo partly drawn) [Compound 7, BocNH-P3(t-BuGly)-P2(Hyp(O—CO(NH-phenethyl)))-P1(1R,2S VinylAcca)—CONHSO2Cyclopropane]	–	1000 to 10000	100 to 1000
C=CC1C[C@]1(NC(=O)[C@@H]1C[C@@H](OC(=O)Nc2cccc(SC)c2)CN1C(=O)[C@@H](NC(=O)OC(C)(C)C)C(C)(C)C)C(=O)NS(=O)(=O)C1CC1 (stereo partly drawn) [Compound 37, BocNH-P3(t-BuGly)-P2(Hyp(O—CO(NH—(3-methylsulfanyl-phenyl))))-P1(1R,2S VinylAcca)—CONHSO2Cyclopropane]	< 100	1000 to 10000	–
C=CC1C[C@]1(NC(=O)[C@@H]1C[C@@H](OC(=O)Nc2cccc(C(=O)OC)c2)CN1C(=O)[C@@H](NC(=O)OC(C)(C)C)C(C)(C)C)C(=O)NS(=O)(=O)C1CC1 (stereo partly drawn) [Compound 40, BocNH-P3(t-BuGly)-P2(Hyp(O—CO(NH—(3-benzoic acid methyl ester))))-P1(1R,2S VinylAcca)—CONHSO2Cyclopropane]	< 100	1000 to 10000	–
C=CC1C[C@]1(NC(=O)[C@@H]1C[C@@H](OC(=O)N(CC)CC)CN1C(=O)[C@@H](NC(=O)OC(C)(C)C)C(C)(C)C)C(=O)NS(=O)(=O)C1CC1 (stereo partly drawn) [Compound 44, BocNH-P3(t-BuGly)-P2(Hyp(O—CO(N,N-diethyl)))-P1(1R,2S VinylAcca)—CONHSO2Cyclopropane]	–	1000 to 10000	< 100
C=CC1C[C@]1(NC(=O)[C@@H]1C[C@@H](OC(=O)Nc2ccccc2SC)CN1C(=O)[C@@H](NC(=O)OC(C)(C)C)C(C)(C)C)C(=O)NS(=O)(=O)C1CC1 (stereo partly drawn) [Compound 29, BocNH-P3(t-BuGly)-P2(Hyp(O—CO(NH—(2-methylsulfanyl-phenyl))))-P1(1R,2S VinylAcca)—CONHSO2Cyclopropane]	< 100	100 to 1000	–
C=CC1C[C@]1(NC(=O)[C@@H]1C[C@@H](OC(=O)Nc2ccccc2C(=O)OCC)CN1C(=O)[C@@H](NC(=O)OC(C)(C)C)C(C)(C)C)C(=O)NS(=O)(=O)C1CC1 (stereo partly drawn) [Compound 19, BocNH-P3(t-BuGly)-P2(Hyp(O—CO(NH—(2-benzoic acid ethyl ester))))-P1(1R,2S VinylAcca)—CONHSO2Cyclopropane]	< 100	< 100	–
